According to ChEMBL document CHEMBL4376834, “Discovery of 4H-Chromen-4-one Derivatives as a New Class of Selective Rho Kinase (ROCK) Inhibitors, which Showed Potent Activity in ex Vivo Diabetic Retinopathy Models” (J Med Chem, 2019):

What was measured:
[1] = target: Tyrosine-protein kinase receptor UFO (Homo sapiens, UniProt P30530, Q764R); test: Inhibition of human recombinant Axl Q764R mutant (473 to end residues) using KKSRGDYMTMQIG as substrate measured after 40 mins in presence of [gamma33P]ATP by radiometric scintillation counting analysis
[2] = target: DNA-dependent protein kinase catalytic subunit (Homo sapiens, UniProt P78527); test: Inhibition of recombinant full length human DNA-PK using GST-cMyc-p53 as substrate incubated for 40 mins by fluorescence assay
[3] = target: RAC-gamma serine/threonine-protein kinase (Homo sapiens, UniProt Q9Y243, S472D); test: Inhibition of recombinant human PKBgamma S472D mutant (117 to end residues) using GRPRTSSFAEGKK as substrate incubated for 40 mins in presence of [gamma33P]ATP by radiometric scintillation counting analysis
[4] = target: Dual specificity mitogen-activated protein kinase kinase 1 (Homo sapiens, UniProt Q02750); test: Inhibition of recombinant full length human MEK1 using inactive MAPK2 as substrate incubated for 40 mins in presence of [gamma-33ATP by radiometric scintillation counting analysis
[5] = target: Tyrosine-protein kinase Fgr (Homo sapiens, UniProt P09769); test: Inhibition of recombinant human FGR (2 to end residues) using poly(Glu, Tyr) 4:1 as substrate after 40 mins in presence of [gamma-33ATP] by radiometric scintillation counting analysis
Activin receptor type-1 = Activin receptor type-1 (Homo sapiens, UniProt Q04771); test: Inhibition of human recombinant ALK2 (147 to end residues) using casein as substrate incubated for 40 mins in presence of [gamma-33P]ATP by radiometric scintillation counting analysis
[6] = target: Muscle, skeletal receptor tyrosine-protein kinase (Homo sapiens, UniProt O15146); test: Inhibition of recombinant human MUSK (530 to end residues) using myelin basic protein as substrate measured after 40 mins in presence of [gamma33P]ATP by radiometric scintillation counting analysis
Ephrin type-A receptor 3 = Ephrin type-A receptor 3 (Homo sapiens, UniProt P29320); test: Inhibition of recombinant human EphA3 (578 to end residues) using poly(Glu, Tyr) 4:1 as substrate measured after 40 mins in presence of [gamma33ATP] by radiometric scintillation counting analysis

Measured: IC50

Muscle, skeletal receptor tyrosine-protein kinase, sequence (O15146 whole entry): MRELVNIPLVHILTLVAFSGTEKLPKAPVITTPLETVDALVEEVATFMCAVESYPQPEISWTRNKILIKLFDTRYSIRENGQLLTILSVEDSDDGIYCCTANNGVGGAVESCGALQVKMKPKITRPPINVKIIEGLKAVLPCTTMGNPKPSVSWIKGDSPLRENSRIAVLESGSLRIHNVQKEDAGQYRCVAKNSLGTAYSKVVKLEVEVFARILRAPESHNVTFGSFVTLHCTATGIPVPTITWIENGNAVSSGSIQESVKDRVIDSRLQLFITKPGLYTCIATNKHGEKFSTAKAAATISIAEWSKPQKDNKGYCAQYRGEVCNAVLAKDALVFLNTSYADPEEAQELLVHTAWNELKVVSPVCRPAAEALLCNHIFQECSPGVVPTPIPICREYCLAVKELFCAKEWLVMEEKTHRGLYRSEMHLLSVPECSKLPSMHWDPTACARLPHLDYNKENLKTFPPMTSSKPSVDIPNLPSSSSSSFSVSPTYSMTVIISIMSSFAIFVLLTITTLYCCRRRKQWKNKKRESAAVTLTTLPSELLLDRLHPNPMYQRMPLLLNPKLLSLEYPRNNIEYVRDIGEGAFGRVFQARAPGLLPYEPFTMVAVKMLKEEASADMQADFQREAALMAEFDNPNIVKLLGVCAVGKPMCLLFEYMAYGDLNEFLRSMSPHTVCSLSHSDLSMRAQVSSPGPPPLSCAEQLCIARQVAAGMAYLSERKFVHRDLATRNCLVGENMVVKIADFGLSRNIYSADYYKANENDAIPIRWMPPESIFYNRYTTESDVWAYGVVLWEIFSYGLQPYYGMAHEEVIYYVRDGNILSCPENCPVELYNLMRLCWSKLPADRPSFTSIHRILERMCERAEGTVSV
Ephrin type-A receptor 3, sequence (P29320 whole entry): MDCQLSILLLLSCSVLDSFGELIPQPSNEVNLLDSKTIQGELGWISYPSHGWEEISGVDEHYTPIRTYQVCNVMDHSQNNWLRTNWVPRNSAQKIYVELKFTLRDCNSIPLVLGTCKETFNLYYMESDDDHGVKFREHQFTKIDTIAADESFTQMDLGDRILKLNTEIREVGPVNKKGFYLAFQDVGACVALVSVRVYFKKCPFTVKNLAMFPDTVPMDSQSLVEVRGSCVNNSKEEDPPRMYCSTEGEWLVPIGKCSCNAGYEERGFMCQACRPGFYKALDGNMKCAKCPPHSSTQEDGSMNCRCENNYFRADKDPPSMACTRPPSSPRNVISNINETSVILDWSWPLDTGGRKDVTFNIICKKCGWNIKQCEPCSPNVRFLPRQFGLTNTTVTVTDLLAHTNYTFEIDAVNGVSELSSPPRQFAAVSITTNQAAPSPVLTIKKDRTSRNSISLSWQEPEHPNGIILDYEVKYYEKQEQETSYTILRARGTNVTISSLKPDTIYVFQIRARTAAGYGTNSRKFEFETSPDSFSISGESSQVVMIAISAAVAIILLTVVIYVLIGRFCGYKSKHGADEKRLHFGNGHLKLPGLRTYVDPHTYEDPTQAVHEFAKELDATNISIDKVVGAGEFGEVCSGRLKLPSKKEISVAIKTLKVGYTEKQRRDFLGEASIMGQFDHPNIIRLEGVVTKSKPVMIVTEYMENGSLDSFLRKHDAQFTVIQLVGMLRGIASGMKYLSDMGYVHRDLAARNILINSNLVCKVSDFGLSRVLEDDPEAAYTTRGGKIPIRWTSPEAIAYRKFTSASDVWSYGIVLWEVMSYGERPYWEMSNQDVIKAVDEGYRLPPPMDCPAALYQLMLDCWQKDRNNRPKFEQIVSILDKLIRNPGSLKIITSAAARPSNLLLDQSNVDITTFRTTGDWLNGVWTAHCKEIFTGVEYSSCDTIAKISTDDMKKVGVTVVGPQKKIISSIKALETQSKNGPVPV
RAC-gamma serine/threonine-protein kinase, sequence (Q9Y243 2-479 S472D limits assumed): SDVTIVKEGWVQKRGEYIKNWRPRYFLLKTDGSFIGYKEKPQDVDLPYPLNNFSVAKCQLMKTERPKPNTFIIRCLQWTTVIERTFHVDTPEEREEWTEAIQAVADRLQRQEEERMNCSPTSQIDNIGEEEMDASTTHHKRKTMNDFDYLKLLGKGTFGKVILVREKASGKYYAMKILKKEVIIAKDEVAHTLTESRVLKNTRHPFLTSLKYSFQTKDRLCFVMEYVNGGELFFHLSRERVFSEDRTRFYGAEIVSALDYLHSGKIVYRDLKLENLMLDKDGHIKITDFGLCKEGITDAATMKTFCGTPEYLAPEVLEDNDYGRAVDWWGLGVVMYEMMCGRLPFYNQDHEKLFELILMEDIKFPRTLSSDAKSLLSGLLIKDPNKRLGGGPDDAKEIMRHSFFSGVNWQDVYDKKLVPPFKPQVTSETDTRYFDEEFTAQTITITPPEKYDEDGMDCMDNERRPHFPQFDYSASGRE
Dual specificity mitogen-activated protein kinase kinase 1, sequence (Q02750 whole entry): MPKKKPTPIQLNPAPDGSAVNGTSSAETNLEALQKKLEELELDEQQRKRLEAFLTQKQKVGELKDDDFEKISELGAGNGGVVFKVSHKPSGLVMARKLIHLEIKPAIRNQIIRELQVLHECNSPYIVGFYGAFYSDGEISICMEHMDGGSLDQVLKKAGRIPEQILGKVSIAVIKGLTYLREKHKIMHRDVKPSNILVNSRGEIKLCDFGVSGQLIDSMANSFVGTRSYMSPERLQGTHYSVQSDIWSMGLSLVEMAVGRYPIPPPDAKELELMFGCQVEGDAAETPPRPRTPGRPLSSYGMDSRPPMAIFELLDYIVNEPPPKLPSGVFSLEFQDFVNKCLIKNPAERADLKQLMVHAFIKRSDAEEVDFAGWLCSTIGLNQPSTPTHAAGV
Tyrosine-protein kinase Fgr, sequence (P09769 whole entry): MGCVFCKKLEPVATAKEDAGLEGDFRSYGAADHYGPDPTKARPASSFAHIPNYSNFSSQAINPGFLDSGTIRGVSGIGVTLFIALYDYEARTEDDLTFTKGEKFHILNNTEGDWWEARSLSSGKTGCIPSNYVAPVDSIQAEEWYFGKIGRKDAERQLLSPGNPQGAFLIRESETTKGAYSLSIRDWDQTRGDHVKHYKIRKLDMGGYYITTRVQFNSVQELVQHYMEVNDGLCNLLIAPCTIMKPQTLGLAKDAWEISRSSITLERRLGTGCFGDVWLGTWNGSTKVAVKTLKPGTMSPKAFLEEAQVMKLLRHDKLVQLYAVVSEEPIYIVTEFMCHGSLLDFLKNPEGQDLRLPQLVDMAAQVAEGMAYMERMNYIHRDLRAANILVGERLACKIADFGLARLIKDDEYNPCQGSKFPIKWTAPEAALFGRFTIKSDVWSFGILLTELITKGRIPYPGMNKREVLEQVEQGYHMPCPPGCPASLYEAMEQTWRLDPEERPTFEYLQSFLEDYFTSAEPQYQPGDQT
Tyrosine-protein kinase receptor UFO, sequence (P30530 26-894 Q764R limits assumed): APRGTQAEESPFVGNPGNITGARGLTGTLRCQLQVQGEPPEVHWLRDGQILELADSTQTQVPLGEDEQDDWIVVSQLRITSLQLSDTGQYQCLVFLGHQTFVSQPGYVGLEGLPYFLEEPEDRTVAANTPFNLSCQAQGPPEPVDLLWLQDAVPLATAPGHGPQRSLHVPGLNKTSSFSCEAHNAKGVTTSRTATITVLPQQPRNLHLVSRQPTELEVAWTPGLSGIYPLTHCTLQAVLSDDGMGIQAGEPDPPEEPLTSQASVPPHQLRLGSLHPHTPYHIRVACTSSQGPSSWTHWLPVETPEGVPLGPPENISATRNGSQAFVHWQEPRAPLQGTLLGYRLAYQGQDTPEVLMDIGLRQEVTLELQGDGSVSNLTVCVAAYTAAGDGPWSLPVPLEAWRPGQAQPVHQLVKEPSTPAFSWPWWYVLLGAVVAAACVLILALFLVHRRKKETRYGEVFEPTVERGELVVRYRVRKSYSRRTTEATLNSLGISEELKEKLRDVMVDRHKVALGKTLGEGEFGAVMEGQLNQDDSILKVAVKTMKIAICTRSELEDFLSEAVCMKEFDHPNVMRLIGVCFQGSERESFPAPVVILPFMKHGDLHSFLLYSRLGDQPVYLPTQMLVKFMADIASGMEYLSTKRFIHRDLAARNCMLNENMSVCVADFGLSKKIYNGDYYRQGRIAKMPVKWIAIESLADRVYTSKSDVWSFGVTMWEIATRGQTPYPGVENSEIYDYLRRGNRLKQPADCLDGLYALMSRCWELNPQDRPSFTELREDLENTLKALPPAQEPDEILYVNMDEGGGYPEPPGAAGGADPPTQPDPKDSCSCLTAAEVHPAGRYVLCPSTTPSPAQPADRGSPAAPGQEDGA
Activin receptor type-1, sequence (Q04771 whole entry): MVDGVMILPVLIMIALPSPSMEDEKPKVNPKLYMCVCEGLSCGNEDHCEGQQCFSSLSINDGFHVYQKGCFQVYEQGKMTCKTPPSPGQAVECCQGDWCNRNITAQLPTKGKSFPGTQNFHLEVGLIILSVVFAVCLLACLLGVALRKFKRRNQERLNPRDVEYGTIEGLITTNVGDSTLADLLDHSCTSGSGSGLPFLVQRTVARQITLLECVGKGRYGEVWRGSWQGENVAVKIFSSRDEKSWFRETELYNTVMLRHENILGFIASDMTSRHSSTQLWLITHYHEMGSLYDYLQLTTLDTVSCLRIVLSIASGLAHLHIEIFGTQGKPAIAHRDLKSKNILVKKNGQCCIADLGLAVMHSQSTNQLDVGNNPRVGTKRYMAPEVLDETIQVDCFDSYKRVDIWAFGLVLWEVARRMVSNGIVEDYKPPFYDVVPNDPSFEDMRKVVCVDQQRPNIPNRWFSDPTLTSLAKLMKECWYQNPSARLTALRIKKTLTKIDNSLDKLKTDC

CN(C)c1ccc(C(=O)Nc2cccc(NC(=O)COc3ccc4c(=O)ccoc4c3)c2)cc1
> 10 µM: all assays above
